# Square brackets hold non-standard residues; d marks the D form. Peptide text beside a SMILES is read from it. * marks the point of attachment. NQ = N-(2-chloro-1,4-naphthoquinonyl)-β-alanine, O=C1C(Cl)=C(NCCC(=O)*)C(=O)c2ccccc21; Glutaryl(OAqm) = O=C(CCCC(=O)*)OCc1ccc2c(c1)C(=O)c1ccccc1C2=O; X1 = O=C1c2cc(O)cc(O)c2C(=O)c2c(O)cc(C(=O)*)cc21; d(pGlu) = O=C1CC[C@H](C(=O)O)N1; pGlu = O=C1CC[C@@H](C(=O)O)N1; Emo = not defined here
# How the values were obtained:
# αT3-1 cells [1] = test: DNA fragmentation assay; type: cell-based, mouse; details: 10 μM, FIG. 10
# Experimental: FIG. 10. DNA cleavage in cells treated with [D-Lys^6(Emo)]GnRH and emodic acid. αT3-1 cells were incubated; in darkness with 10 μM of the tested compounds, washed and illuminated. After 24 h of incubation DNA was isolated and analyzed by gel electrophoresis. Lanes 1, 3 and 5 represent DNA of cells treated with 1% DMSO in PBS, emodic acid or [D-Lys^6(Emo)]GnRH, respectively, followed by illumination. Lane 2, 4 and 6 represent cells treated with 1% DMSO in PBS, emodic acid, or [D-Lys^6(Emo)]GnRH, respectively, in darkness.
# αT3-1 cells (×10^6/dish) were incubated in phenol red and serum free complete medium (37° C., 5% CO2) with the tested compounds for 5 h in the dark. Cells were then washed with PBS (×3) and illuminated or remained in darkness as described earlier. The media were then replaced by complete medium and cells were incubated for additional 24 h. DNA was then isolated, using Wizard® genomic DNA purification kit (Promega, Madison, Wis.) following the company's protocol and analyzed by gel electrophoresis (0.4% cross linked agarose, ethidium bromide staining).
# [2] = biological target: T1, human serum albumin (HSA) (Homo sapiens, UniProt P02768); test: Binding to HSA; type: in vitro ADME; details: 37° C., 3 h; FIG. 8
# T1 construct: purchased Sigma, St. Louis, Mo
# Experimental: The concentration of HSA in the solution was determined using a molar extinction coefficient of 39,000 M^−1 cm^−1 at 277.5 nm^33. The unbound compound was then separated from the HSA solution by applying it on to a Centricon® concentrator column (Amicon Inc., Beverly, Mass.) with a band pass membrane of […] according to the manufacture's protocol. The HSA bound compound (˜20 μL) was then precipitated by adding it to acetonitrile (1 mL). The supernatant was kept and the precipitate was dissolved in PBS (100 μL) and re-precipitated. The combined supernatants were evaporated, the residue was dissolved in water containing 0.1% TFA (buffer A) and analyzed by HPLC to determine the amount of the tested compounds. Results represent the mean of two experiments (FIG. 8).
# αT3-1 cells [3] = test: In vitro toxicity / phototoxicity (XTT cell survival); type: cell-based, mouse
# Experimental: αT3-1 cells (50,000 cells/well) were plated in 96-well tissue culture plates in 0.1 mL of complete medium. After 24 h the medium was changed and cells were incubated in the same medium (without serum and phenol red) containing different concentrations of the tested compounds for 4 h at 37° C. The cells were then washed (×3) with PBS and illuminated (λmax=400 nm) in PBS. The fluence rate was 14.3 mW cm^−2 with a total fluence of 17 J cm^−2. Following illumination the media were replaced by complete medium and the plates were incubated for additional 24 h at 37° C. Cell survival was determined using the XTT (Biological Industries, Beit-Haemek, Israel) kit following the manufacture's protocol. Values are expressed as % survival.
# [4] = biological target: T2, rat pituitary GnRH receptors (Rattus norvegicus, UniProt P30969); test: Displacement binding assay with 125I[D-Lys6]GnRH on rat pituitary membranes; details: for IC50: Table 3, estimated IC50, 125I-[D-Lys6]GnRH tracer; for binding affinity to GnRH receptors (in words): FIG. 11; for increase of binding affinity to GnRH receptors compared to the parent peptide: vs [D-Lys6]GnRH
# T2 construct: from tissue; host or cells: rat pituitary membranes (Wistar-derived rats)
# T2 sequence (P30969 1-327): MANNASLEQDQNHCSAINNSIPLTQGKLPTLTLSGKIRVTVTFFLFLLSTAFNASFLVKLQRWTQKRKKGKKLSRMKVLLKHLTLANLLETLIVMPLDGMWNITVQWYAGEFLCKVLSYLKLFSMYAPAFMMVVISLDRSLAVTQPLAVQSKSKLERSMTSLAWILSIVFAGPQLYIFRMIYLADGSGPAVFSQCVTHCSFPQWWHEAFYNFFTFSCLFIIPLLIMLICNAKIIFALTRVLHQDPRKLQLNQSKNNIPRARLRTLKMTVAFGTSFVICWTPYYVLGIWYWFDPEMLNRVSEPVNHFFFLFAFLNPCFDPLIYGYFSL
# Experimental: Specific binding was calculated by subtracting the non-specific binding from the maximal binding, determined in the absence of any competing peptide. Results are the mean of two experiments carried out in triplicates. SEM values are omitted for clarity (FIG. 3).
# [5] = literature ref 5; cited from earlier work
# LH release = test: In vivo LH release after intraperitoneal administration; parameters: species or system rat; details: 20 nmol/rat
# Experimental: The ability of [D-Lys^6(Emo)]GnRH to bind GnRH receptors and promote LH release in vitro, prompted the evaluation of its in vivo activity.
# Blood samples were withdrawn by cardiac puncture under light ether anesthesia at the indicated time intervals, and serum LH levels were determined by RIA as described above (FIG. 6). Results are the mean±SEM of LH concentrations in the serum of five animals/experimental group. The LH concentration was determined using three different dilutions of each serum sample. Similar results were obtained in two other experiments.
# [6] = Relative hydrophobicity by elution from RP-18 HPLC column; type: physicochemical; details: percent of buffer B in which the analog was eluted from RP-18 column
# Text: All chemicals and reagents were of analytical grade. Rink amide resin, 9-fluorenylmethoxycarbonyl (Fmoc) protected amino acid derivatives, and all the reagents for solid-phase peptide synthesis were purchased from Novabiochem (Läufelfingen, Switzerland). Side-chain protecting groups employed for peptide synthesis were as follows: Arg, 2,2,4,6,7-pentamethyldihydrobenzofuran-5-sulfonyl (Pbf); His, trityl (Trt); D-Lys, 4-methyltrityl (Mtt) or tert-butyloxycarbonyl (Boc); Trp, tert-butyloxycarbonyl (Boc); Ser and Tyr, tert-butyl (tBu). Reversed phase HPLC was performed on a Spectra-Physics SP-8800 liquid chromatography system equipped with an Applied Biosystems 757 variable wavelength absorbance detector. HPLC prepacked columns were: Lichrocart, containing Lichrosorb RP-18 (250×10 mm; 7 μm, Merck, Darmstadt, Germany) for semi-preparative purification and Lichrospher 100 RP-18 (250×4 mm; 5 μm, Merck, Darmstadt, Germany) and wide pore butyl C4 (250×4.6 mm; 5 μm, J. T. Baker Inc., Phillipsburg, N.J.) for analytical purposes. HPLC purification and analysis were achieved by using a linear gradient established between 0.1% trifluoroacetic acid […] in water as buffer A and 0.1% TFA in 75% aqueous acetonitrile as buffer B. Eluent composition was 10-100% B over 40 mlin, using RP-18 column, and a gradient of 0-100% B over 40 min employing a wide pore butyl (C4) column. N-(2noro-1,4-naphtoqumonyl)-β-alanine (NQ), 1,6,8-Trihydroxy-3-carboxylic acid-anthraquinone (Emo) and 2-hydroxymethyl-anthraquinone hemiglutarate (AntrQ) were synthesized as described^14,24,27 (for chemical structure see FIG. 1).
# [7] = system: human breast and prostate cancer; details: literature ref 14; cited from earlier work
# [8] = literature ref 14; cited from earlier work
# [9] = biological target: T3, rat pituitary GnRH receptor (rat, UniProt P30969 1-327); test: displacement of 125I[D-Lys6]GnRH from rat pituitary membranes
# T3 construct: whole, on cells; Native receptor; also called GnRH receptors; rat pituitary receptors
# T3 sequence (looked up): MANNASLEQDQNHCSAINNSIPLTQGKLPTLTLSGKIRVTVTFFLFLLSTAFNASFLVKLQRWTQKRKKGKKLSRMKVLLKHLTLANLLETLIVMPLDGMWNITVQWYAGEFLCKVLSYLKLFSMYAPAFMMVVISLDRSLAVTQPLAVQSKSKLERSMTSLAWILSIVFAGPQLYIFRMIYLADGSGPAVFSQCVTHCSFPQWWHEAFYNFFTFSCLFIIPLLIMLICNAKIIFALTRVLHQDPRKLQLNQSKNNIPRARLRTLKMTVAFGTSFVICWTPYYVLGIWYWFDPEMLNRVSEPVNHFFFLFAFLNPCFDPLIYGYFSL
# Experimental: Briefly, membranes were incubated for 90 min at 4° C. with ¹²⁵I[D-Lys⁶]GnRH and with the unlabeled peptides. Non-specific binding was defined as the residual binding in the presence of excess [D-Lys⁶]GnRH (1 μM). Specific binding was calculated by subtracting the non-specific binding from the maximal binding, determined in the absence of any competing peptide. Results are the mean of two experiments carried out in triplicates. SEM values are omitted for clarity (FIG. 3).
# [10] = biological target: T3, rat pituitary GnRH receptor; test: displacement of 125I[D-Lys6]GnRH from proestrous rat pituitary membranes
# T1 sequence (P02768 25-609): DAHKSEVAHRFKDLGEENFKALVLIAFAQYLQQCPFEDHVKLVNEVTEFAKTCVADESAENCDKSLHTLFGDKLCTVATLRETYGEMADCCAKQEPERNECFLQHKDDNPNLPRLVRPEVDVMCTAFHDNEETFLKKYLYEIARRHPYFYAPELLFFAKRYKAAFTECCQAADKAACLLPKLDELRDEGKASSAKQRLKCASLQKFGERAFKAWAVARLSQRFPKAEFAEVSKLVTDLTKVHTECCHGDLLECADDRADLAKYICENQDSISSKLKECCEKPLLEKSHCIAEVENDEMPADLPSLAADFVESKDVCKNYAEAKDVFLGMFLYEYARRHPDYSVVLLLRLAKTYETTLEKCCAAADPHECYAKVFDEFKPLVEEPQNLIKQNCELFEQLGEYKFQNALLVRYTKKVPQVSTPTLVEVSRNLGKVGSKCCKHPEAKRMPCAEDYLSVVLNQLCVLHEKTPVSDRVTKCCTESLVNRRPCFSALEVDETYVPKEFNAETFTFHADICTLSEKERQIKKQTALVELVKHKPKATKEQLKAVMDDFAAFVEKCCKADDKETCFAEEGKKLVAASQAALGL
molecule,measurement,setting,value
O=C(O)c1cc(O)c2c(c1)C(=O)c1cc(O)cc(O)c1C2=O [emodic acid],DNA fragmentation in the dark,αT3-1 cells [1]; darkness,did not cause any DNA fragmentation
same,DNA fragmentation upon illumination,αT3-1 cells [1]; illuminated,induced DNA fragmentation
same,binding to HSA,[2],binds to HSA
same,phototoxicity to αT3-1 cells,"αT3-1 cells [3]; 10 μM, illuminated, FIG. 9",significant phototoxicity
same,toxicity to αT3-1 cells in the dark,αT3-1 cells [3]; incubated in the dark,did not show any toxicity
"CC(C)C[C@H](NC(=O)[C@@H](CCCCN)NC(=O)[C@H](Cc1ccc(O)cc1)NC(=O)[C@H](CO)NC(=O)[C@@H](Cc1c[nH]c2ccccc12)NC(=O)[C@@H](Cc1ccccc1)NC(=O)[C@H]1CCC(=O)N1)C(=O)N[C@@H](CCCNC(=N)N)C(=O)N1CCC[C@H]1C(=O)NCC(N)=O [[D-Lys^6]Antg, [D-Pyr^1, D-Phe^2, D-Trp^3, D-Lys^6]GnRH] ([d(pGlu)][dF][dW]SY[dK]LRPG-NH2)",IC50,[4],45 nM
pGlu-His-Trp-Ser-Tyr-Gly-Leu-Arg-Pro-Gly-NH2 [GnRH],half-life time in the general circulation,[5],2 to 4 min
CC(C)C[C@H](NC(=O)[C@@H](CCCCN)NC(=O)[C@H](Cc1ccc(O)cc1)NC(=O)[C@H](CO)NC(=O)[C@H](Cc1c[nH]c2ccccc12)NC(=O)[C@H](Cc1c[nH]cn1)NC(=O)[C@@H]1CCC(=O)N1)C(=O)N[C@@H](CCCNC(=N)N)C(=O)N1CCC[C@H]1C(=O)NCC(N)=O [[D-Lys^6]GnRH],increase in serum LH levels at higher dose,LH release,larger increase in serum LH levels
same,Hydrophobicity (% B),[6],37 % B
"[D-Pyr^1, D-Phe^2, D-Trp^3, D-Lys^6]GnRH ([d(pGlu)][dF][dW]SY[dK]LRPG-NH2; SMILES CC(C)C[C@H](NC(=O)[C@@H](CCCCN)NC(=O)[C@H](Cc1ccc(O)cc1)NC(=O)[C@H](CO)NC(=O)[C@@H](Cc1c[nH]c2ccccc12)NC(=O)[C@@H](Cc1ccccc1)NC(=O)[C@H]1CCC(=O)N1)C(=O)N[C@@H](CCCNC(=N)N)C(=O)N1CCC[C@H]1C(=O)NCC(N)=O)",binding affinity to GnRH receptors (in words),[4],lower binding affinity to GnRH receptor as compared to [D-Lys^6]GnRH
"CC(C)C[C@H](NC(=O)[C@@H](CCCCNC(=O)c1cc(O)c2c(c1)C(=O)c1cc(O)cc(O)c1C2=O)NC(=O)[C@H](Cc1ccc(O)cc1)NC(=O)[C@H](CO)NC(=O)[C@@H](Cc1c[nH]c2ccccc12)NC(=O)[C@@H](Cc1ccccc1)NC(=O)[C@H]1CCC(=O)N1)C(=O)N[C@@H](CCCNC(=N)N)C(=O)N1CCC[C@H]1C(=O)NCC(N)=O [[D-Lys^6(Emo)]Antg, [D-Pyr^1, D-Phe^2, D-Trp^3, D-Lys^6(Emo)]GnRH] ([d(pGlu)][dF][dW]SY[dK](X1)LRPG-NH2)",binding affinity to GnRH receptors (in words),[4],lower binding affinity
same,IC50,[4],150 nM
"CC(C)C[C@H](NC(=O)[C@@H](CCCCNC(=O)CCNC1=C(Cl)C(=O)c2ccccc2C1=O)NC(=O)[C@H](Cc1ccc(O)cc1)NC(=O)[C@H](CO)NC(=O)[C@H](Cc1c[nH]c2ccccc12)NC(=O)[C@H](Cc1c[nH]cn1)NC(=O)[C@@H]1CCC(=O)N1)C(=O)N[C@@H](CCCNC(=N)N)C(=O)N1CCC[C@H]1C(=O)NCC(N)=O [[D-Lys^6(NQ)]GnRH, [D-Lys^6(N-(2-chloro-1,4-naphthoquinonyl)-β-alanyl)]GnRH]",increase of binding affinity to GnRH receptors compared to the parent peptide,[4],2 folds
same,Hydrophobicity (% B),[6],59 % B
"CC(C)C[C@H](NC(=O)[C@@H](CCCCNC(=O)CCCC(=O)OCc1ccc2c(c1)C(=O)c1ccccc1C2=O)NC(=O)[C@H](Cc1ccc(O)cc1)NC(=O)[C@H](CO)NC(=O)[C@H](Cc1c[nH]c2ccccc12)NC(=O)[C@H](Cc1c[nH]cn1)NC(=O)[C@@H]1CCC(=O)N1)C(=O)N[C@@H](CCCNC(=N)N)C(=O)N1CCC[C@H]1C(=O)NCC(N)=O [[D-Lys^6(AntrQ)]GnRH, [D-Lys^6(2-hydroxymethyl-anthra-quinone hemiglutarate)] GnRH]",increase of binding affinity to GnRH receptors compared to the parent peptide,[4],5 folds
same,Hydrophobicity (% B),[6],84 % B
same,growth of human breast and prostate cancer,[7],inhibited the growth
same,biological activity relative to the parent peptide,[8],five-fold higher
"[pGlu]HWSY[dK](NQ)LRPG-NH2 (Quinone conjugate of [D-Lys6]GnRH; also called [D-Lys^6(NQ)]GnRH) [[D-Lys^6(N-(2-chloro-1,4-naphthoquinonyl)-β-alanyl)]GnRH]",IC50,[9],0.09 nM
"[pGlu]HWSY[dK](Emo)LRPG-NH2 (not fully specified; printed as [D-Lys^6(1,3,8-trihydroxy-6-carboxy-anthraquinone)]GnRH; reading uncertain, Emodic acid conjugate of [D-Lys6]GnRH, an agonist; also called [D-Lys^6(Emo)]GnRH; [D-(Emo)]GnRH) [[D-Lys^6(1,3,8-trihydroxy-6-carboxy-anthraquinone)]GnRH]",IC50,[9],0.25 nM
same,IC50,[10],2.6 nM
[pGlu]HWSY[dK](Glutaryl(OAqm))LRPG-NH2 (Quinone conjugate of [D-Lys6]GnRH; also called [D-Lys^6(AntrQ)]GnRH; [D-Lys^6(AntQ)]GnRH) [[D-Lys^6(2-hydroxymethyl-anthraquinone hemiglutarate)]GnRH],IC50,[9],0.02 nM
